Experimental data from patent US9115101B2 (Genentech, Inc., priority 2012, dated 2015).
pIC50: −log10 of the molar value. Where two headings read alike, the source gives them in different places.

Target: T1, RORc ligand binding domain (Homo sapiens, UniProt P51449)
T1 construct: host or cells: E. coli
T1 sequence (P51449 269-508 limits assumed): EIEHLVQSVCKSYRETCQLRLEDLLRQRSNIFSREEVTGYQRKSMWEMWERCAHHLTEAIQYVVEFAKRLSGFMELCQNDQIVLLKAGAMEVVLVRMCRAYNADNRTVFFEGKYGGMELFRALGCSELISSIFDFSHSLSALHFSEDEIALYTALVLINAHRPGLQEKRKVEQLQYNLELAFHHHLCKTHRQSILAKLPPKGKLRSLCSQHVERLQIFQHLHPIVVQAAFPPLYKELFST
Assay: In Vitro RORc Ligand Binding Assay (25-[3H]hydroxycholesterol radioligand filtration)
Conditions: read-out: RORc IC50

[1] = In Vitro RORc Ligand Binding Assay, Table 4

Row | SMILES | pIC50 [1] | pIC50
1 | O=S1(=O)C(c2ccccc2)CCCCN1Cc1ccc(N2CCC(n3cnnc3)CC2)cc1F (single isomer, unassigned) [Example 325, 2-[2-Fluoro-4-(4-[1,2,4]triazol-4-yl-piperidin-1-yl)-benzyl]-7-phenyl-[1,2]thiazepane 1,1-dioxide] | 8.00 | 
2 | CS(=O)(=O)N1CCC(Nc2ccc(CN3CCCCC(c4ccccc4)S3(=O)=O)cc2)CC1 (single isomer, unassigned) [Example 326, [4-(1,1-Dioxo-7-phenyl-[1,2]thiazepan-2-ylmethyl)-phenyl]-(1-methanesulfonyl-piperidin-4-yl)-amine] | 8.40 | 
3 | CC(=O)N1CCN(c2ccc(CN3C(C)CCCC(c4ccccc4)S3(=O)=O)c(F)c2)CC1 (single isomer, unassigned) [Example 327, 1-{4-[3-Fluoro-4-(3-methyl-1,1-dioxo-7-phenyl-[1,2]thiazepan-2-ylmethyl)-phenyl]-piperazin-1-yl}-ethanone] | 8.52 | 
4 | CC(=O)N1CCN(c2ccc(CN3C(C)CCCC(c4ccccc4)S3(=O)=O)c(F)c2)CC1 (single isomer, unassigned) [Example 328, 1-{4-[3-Fluoro-4-(3-methyl-1,1-dioxo-7-phenyl-[1,2]thiazepan-2-ylmethyl)-phenyl]-piperazin-1-yl}-ethanone] | 5.96 | 
5 | CC(=O)N1CCN(c2ccc(CN3C(C)CCCC(c4ccccc4)S3(=O)=O)c(F)c2)CC1 (single isomer, unassigned) [Example 329, 1-{4-[3-Fluoro-4-(3-methyl-1,1-dioxo-7-phenyl-[1,2]thiazepan-2-ylmethyl)-phenyl]-piperazin-1-yl}-ethanone] | 7.62 | 
6 | CC(=O)N1CCN(c2ccc(CN3C(C)CCCC(c4ccccc4)S3(=O)=O)c(F)c2)CC1 (single isomer, unassigned) [Example 330, 1-{4-[3-Fluoro-4-(3-methyl-1,1-dioxo-7-phenyl-[1,2]thiazepan-2-ylmethyl)-phenyl]-piperazin-1-yl}-ethanone] | 7.43 | 
7 | CC(=O)N1CCN(c2ccc(CN3CCC(C)CC(c4ccccc4)S3(=O)=O)c(F)c2)CC1 (single isomer, unassigned) [Example 331, 1-{4-[3-Fluoro-4-(5-methyl-1,1-dioxo-7-phenyl-[1,2]thiazepan-2-ylmethyl)-phenyl]-piperazin-1-yl}-ethanone] | 7.66 | 
8 | CC(=O)N1CCN(c2ccc(CN3CCC(C)CC(c4ccccc4)S3(=O)=O)c(F)c2)CC1 (single isomer, unassigned) [Example 332, 1-{4-[3-Fluoro-4-(5-methyl-1,1-dioxo-7-phenyl-[1,2]thiazepan-2-ylmethyl)-phenyl]-piperazin-1-yl}-ethanone] | 7.15 | 
9 | CC(=O)N1CCN(c2ccc(CN3CCC(C)CC(c4ccccc4)S3(=O)=O)c(F)c2)CC1 (single isomer, unassigned) [Example 333, 1-{4-[3-Fluoro-4-(5-methyl-1,1-dioxo-7-phenyl-[1,2]thiazepan-2-ylmethyl)-phenyl]-piperazin-1-yl}-ethanone] | 7.49 | 
10 | CC(=O)N1CCN(c2ccc(CN3CC(C)CCC(c4ccccc4)S3(=O)=O)c(F)c2)CC1 (single isomer, unassigned) [Example 334, 1-{4-[3-Fluoro-4-(4-methyl-1,1-dioxo-7-phenyl-[1,2]thiazepan-2-ylmethyl)-phenyl]-piperazin-1-yl}-ethanone] | 8.30 | 
11 | CC(=O)N1CCN(c2ccc(CN3CCCCC(c4ccccc4)S3(=O)=O)c(F)c2)[C@@H](C)C1 (single isomer, unassigned) [Example 335, 1-{4-[4-(1,1-Dioxo-7-phenyl-[1,2]thiazepan-2-ylmethyl)-3-fluoro-phenyl]-3-methyl-piperazin-1-yl}-ethanone] | 8.10 | 
12 | O=S1(=O)C(c2ccccc2)CCCCN1Cc1ccc(N2CCC(n3cnnc3)CC2)cc1 (single isomer, unassigned) [Example 336, 7-Phenyl-2-[4-(4-[1,2,4]triazol-4-yl-piperidin-1-yl)-benzyl]-[1,2]thiazepane 1,1-dioxide] | 7.55 | 
13 | O=c1[nH]nc(C2CCN(c3ccc(CN4CCCCC(c5ccccc5)S4(=O)=O)cc3)CC2)o1 (single isomer, unassigned) [Example 337, 5-{1-[4-(1,1-Dioxo-7-phenyl-[1,2]thiazepan-2-ylmethyl)-phenyl]-piperidin-4-yl}-3H-[1,3,4]oxadiazol-2-one] | 7.62 | 
14 | CC(=O)N1CCN(c2ccc(CN3CC(C)CCC(c4ccccc4)S3(=O)=O)c(F)c2)CC1 (single isomer, unassigned) [Example 338, 1-{4-[3-Fluoro-4-(4-methyl-1,1-dioxo-7-phenyl-[1,2]thiazepan-2-ylmethyl)-phenyl]-piperazin-1-yl}-ethanone] | 7.92 | 
15 | CC(=O)N1CCN(c2ccc(CN3CC(C)CCC(c4ccccc4)S3(=O)=O)c(F)c2)CC1 (single isomer, unassigned) [Example 339, 1-{4-[3-Fluoro-4-(4-methyl-1,1-dioxo-7-phenyl-[1,2]thiazepan-2-ylmethyl)-phenyl]-piperazin-1-yl}-ethanone] | 7.82 | 
16 | CC(=O)N1CCN(c2ccc(CN3CC(C)CCC(c4ccccc4)S3(=O)=O)c(F)c2)CC1 (single isomer, unassigned) [Example 340, 1-{4-[3-Fluoro-4-(4-methyl-1,1-dioxo-7-phenyl-[1,2]thiazepan-2-ylmethyl)-phenyl]-piperazin-1-yl}-ethanone] | 7.27 | 
17 | CC(=O)N1CCN(c2ccc(CN3CCCCC(c4ccccc4)S3(=O)=O)c(F)c2)[C@@H](C)C1 (single isomer, unassigned) [Example 341, 1-{4-[4-(1,1-Dioxo-7-phenyl-[1,2]thiazepan-2-ylmethyl)-3-fluoro-phenyl]-3-methyl-piperazin-1-yl}-ethanone] | 7.59 | 
18 | CC(=O)N1CCN(c2ccc(CN3CCC(c4ccc(F)cc4)S3(=O)=O)c(F)c2)CC1 (centres unmarked) [Example 9, 1-(4-{3-Fluoro-4-[5-(4-fluoro-phenyl)-1,1-dioxo-isothiazolidin-2-ylmethyl]-phenyl}-piperazin-1-yl)-ethanone] | 5.12 | 

More lines, now with the values ahead:

Row | pIC50 [1] | pIC50 | SMILES
19 | 7.12 |  | O=S1(=O)C(c2ccccc2)CCCCN1Cc1ccc(N2CCC(n3cnnc3)CC2)cc1 (single isomer, unassigned) [Example 342, 7-Phenyl-2-[4-(4-[1,2,4]triazol-4-yl-piperidin-1-yl)-benzyl]-[1,2]thiazepane 1,1-dioxide]
20 | 6.35 |  | O=c1[nH]nc(C2CCN(c3ccc(CN4CCCCC(c5ccccc5)S4(=O)=O)cc3)CC2)o1 (single isomer, unassigned) [Example 343, 5-{1-[4-(1,1-Dioxo-7-phenyl-[1,2]thiazepan-2-ylmethyl)-phenyl]-piperidin-4-yl}-3H-[1,3,4]oxadiazol-2-one]
21 | 7.49 |  | CC(=O)N1CCN(c2ccc(CN3CCCCC(c4ccccc4)S3(=O)=O)cc2F)CC1 (single isomer, unassigned) [Example 344, 1-{4-[4-(1,1-Dioxo-7-phenyl-[1,2]thiazepan-2-ylmethyl)-2-fluoro-phenyl]-piperazin-1-yl}-ethanone]
22 | 8.10 |  | CS(=O)(=O)N1CCC(Nc2ccc(CN3CCCCC(c4ccccc4)S3(=O)=O)c(F)c2)CC1 (single isomer, unassigned) [Example 345, [4-(1,1-Dioxo-7-phenyl-[1,2]thiazepan-2-ylmethyl)-3-fluoro-phenyl]-(1-methanesulfonyl-piperidin-4-yl)-amine]
23 | 7.30 |  | CC(=O)N1CCN(c2ccc(CN3CCCCC(c4ccccc4)S3(=O)=O)cc2F)CC1 (single isomer, unassigned) [Example 346, 1-{4-[4 (1,1-Dioxo-7-phenyl-[1,2]thiazepan-2-ylmethyl)-2-fluoro-phenyl]-piperazin-1-yl}-ethanone]
24 | 8.30 |  | CS(=O)(=O)N1CCC(Nc2ccc(CN3CCCCC(c4ccccc4)S3(=O)=O)c(F)c2)CC1 (single isomer, unassigned) [Example 347, [4-(1,1-Dioxo-7-phenyl-[1,2]thiazepan-2-ylmethyl)-3-fluoro-phenyl]-(1-methanesulfonyl-piperidin-4-yl)-amine]
25 |  | 5.45 | C[C@H]1CCC(c2ccccc2)S(=O)(=O)N1Cc1ccc(C(=O)NC2CCC(O)C2)cc1 (single isomer, unassigned) [Example 408]
26 |  | 5.73 | C[C@H]1CCC(c2ccccc2)S(=O)(=O)N1Cc1ccc(C(=O)NC2CCC(O)C2)cc1 (single isomer, unassigned) [Example 409]
27 |  | 5.19 | C[C@H]1CCC(c2ccccc2)S(=O)(=O)N1Cc1ccc(C(=O)NC2CCC(O)C2)cc1 (single isomer, unassigned) [Example 410]
28 |  | 5.45 | C[C@H]1CCC(c2ccccc2)S(=O)(=O)N1Cc1ccc(C(=O)NC2CCC(O)C2)cc1 (single isomer, unassigned) [Example 411]
29 |  | 6.23 | C[C@H]1CCC(c2ccccc2)S(=O)(=O)N1Cc1ccc(N2CCC(C)(n3cnnc3)CC2)cc1F (single isomer, unassigned) [Example 412]
30 |  | 7.49 | C[C@H]1CCC(c2ccccc2)S(=O)(=O)N1Cc1ccc(N2CCC(C)(n3cnnc3)CC2)cc1F (single isomer, unassigned) [Example 413]
31 |  | 6.89 | C[C@H]1CCC(c2ccccc2)S(=O)(=O)N1Cc1ccc(N2CCN3C(=O)OCC3C2)cc1F (single isomer, unassigned) [Example 418]
32 |  | 7.55 | C[C@H]1CCC(c2ccccc2)S(=O)(=O)N1Cc1ccc(N2CCN3C(=O)OCC3C2)cc1F (single isomer, unassigned) [Example 420]
33 |  | 6.50 | C[C@H]1CCC(c2ccccc2)S(=O)(=O)N1Cc1ccc(N2CC(n3cnnc3)C2)cc1F (single isomer, unassigned) [Example 429]
34 |  | 5.98 | C[C@H]1CCC(c2ccccc2)S(=O)(=O)N1Cc1ccc(OC[C@H]2CCC(=O)N2)cc1 (single isomer, unassigned) [Example 450]
35 |  | 6.21 | C[C@H]1CCC(c2ccccc2)S(=O)(=O)N1Cc1ccc(OC[C@@H]2CCC(=O)N2)cc1 (single isomer, unassigned) [Example 454]
